Article PMC6199744, “Development of Chemical Proteomics for the Folateome and Analysis of the Kinetoplastid Folateome” (ACS Infectious Diseases, 2018)

Columns and labels:
Type in all cases: binding
[1] = molecular target: T1, HeLa cell extract proteins (Homo sapiens, UniProt O75152); details: HeLa; protein ZC3H11A (ZINC FINGER CCCH DOMAIN-CONTAINING PROTEIN 11A)
T1 construct: endogenous in cells; host or cells: HeLa cell extract

[2] = molecular target: T2, HeLa cell extract proteins (Homo sapiens, UniProt O95816); details: HeLa; protein BAG2
T2 construct: endogenous in cells; host or cells: HeLa cell extract

[3] = molecular target: T3, HeLa cell extract proteins (Homo sapiens, UniProt P07437); details: protein TUBB; HeLa
T3 construct: endogenous in cells; host or cells: HeLa cell extract

[4] = molecular target: T4, HeLa cell extract proteins (Homo sapiens, UniProt P08238); details: HeLa; protein HSP90AB1
T4 construct: endogenous in cells; host or cells: HeLa cell extract

[5] = molecular target: T5, HeLa cell extract proteins (Homo sapiens, UniProt P12004); details: HeLa; captured protein PCNA
T5 construct: endogenous in cells; host or cells: HeLa cell extract

[6] = molecular target: T6, HeLa cell extract proteins (Homo sapiens, UniProt P15121); details: HeLa; protein AKR1B1
T6 construct: endogenous in cells; host or cells: HeLa cell extract

[7] = molecular target: T7, HeLa cell extract proteins (Homo sapiens, UniProt P21359); details: HeLa; protein NF1
T7 construct: endogenous in cells; host or cells: HeLa cell extract

[8] = molecular target: T8, HeLa cell extract proteins (Homo sapiens, UniProt P38646); details: HeLa; captured protein HSPA9
T8 construct: endogenous in cells; host or cells: HeLa cell extract

[9] = molecular target: T9, HeLa cell extract proteins (Homo sapiens, UniProt P49336); details: protein CDK8; HeLa
T9 construct: endogenous in cells; host or cells: HeLa cell extract

[10] = molecular target: T10, HeLa cell extract proteins (Homo sapiens, UniProt P49411); details: protein TUFM; HeLa
T10 construct: endogenous in cells; host or cells: HeLa cell extract

[11] = molecular target: T11, HeLa cell extract proteins (Homo sapiens, UniProt P53611); details: HeLa; captured protein RABGGTB
T11 construct: endogenous in cells; host or cells: HeLa cell extract
T11 sequence (P53611 1-331): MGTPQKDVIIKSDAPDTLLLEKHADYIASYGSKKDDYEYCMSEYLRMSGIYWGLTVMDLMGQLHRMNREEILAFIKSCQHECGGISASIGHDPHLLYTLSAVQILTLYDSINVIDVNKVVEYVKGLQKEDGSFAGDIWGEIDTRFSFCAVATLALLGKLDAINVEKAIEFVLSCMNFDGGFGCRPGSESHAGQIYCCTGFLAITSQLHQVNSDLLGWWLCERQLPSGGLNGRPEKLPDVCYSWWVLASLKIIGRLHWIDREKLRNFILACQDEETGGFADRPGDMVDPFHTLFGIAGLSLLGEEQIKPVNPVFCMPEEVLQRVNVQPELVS

[12] = molecular target: T12, HeLa cell extract proteins (Homo sapiens, UniProt P63244); details: HeLa; protein GNB2L1
T12 construct: endogenous in cells; host or cells: HeLa cell extract

[13] = molecular target: T13, HeLa cell extract proteins (Homo sapiens, UniProt P78527); details: HeLa; protein PRKDC (ISOFORM 1 OF DNA-DEPENDENT PROTEIN KINASE CATALYTIC SUBUNIT)
T13 construct: endogenous in cells; host or cells: HeLa cell extract

[14] = molecular target: T14, HeLa cell extract proteins (Homo sapiens, UniProt P81605); details: protein DCD; HeLa
T14 construct: endogenous in cells; host or cells: HeLa cell extract
T14 sequence (P81605 20-110): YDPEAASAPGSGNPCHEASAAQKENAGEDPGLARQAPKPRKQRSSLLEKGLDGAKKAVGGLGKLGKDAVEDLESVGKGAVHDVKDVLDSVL

[15] = molecular target: T15, HeLa cell extract proteins (Homo sapiens, UniProt Q14203); details: protein DCTN1; HeLa
T15 construct: endogenous in cells; host or cells: HeLa cell extract

[16] = molecular target: T16, HeLa cell extract proteins (Homo sapiens, UniProt Q8IYS1); details: HeLa; protein PM20D2
T16 construct: endogenous in cells; host or cells: HeLa cell extract
T16 sequence (Q8IYS1 1-436): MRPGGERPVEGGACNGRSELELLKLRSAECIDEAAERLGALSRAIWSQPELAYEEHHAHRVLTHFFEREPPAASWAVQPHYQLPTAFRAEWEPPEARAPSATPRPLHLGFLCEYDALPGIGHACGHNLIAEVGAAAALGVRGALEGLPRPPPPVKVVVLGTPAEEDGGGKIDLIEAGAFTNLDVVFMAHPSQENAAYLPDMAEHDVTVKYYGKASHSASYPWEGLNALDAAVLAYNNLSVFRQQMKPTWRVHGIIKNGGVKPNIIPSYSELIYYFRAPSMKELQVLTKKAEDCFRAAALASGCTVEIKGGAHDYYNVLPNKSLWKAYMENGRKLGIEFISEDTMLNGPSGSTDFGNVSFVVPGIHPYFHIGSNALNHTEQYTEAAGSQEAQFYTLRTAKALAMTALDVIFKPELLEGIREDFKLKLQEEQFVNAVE

[17] = molecular target: T17, HeLa cell extract proteins (Homo sapiens, UniProt Q92734); details: HeLa; captured protein TFG
T17 construct: endogenous in cells; host or cells: HeLa cell extract

[18] = molecular target: T18, HeLa cell extract proteins (Homo sapiens, UniProt Q93074); details: HeLa; protein MED12
T18 construct: endogenous in cells; host or cells: HeLa cell extract

[19] = molecular target: T19, HeLa cell extract proteins (Homo sapiens, UniProt Q9NR28); details: HeLa; protein DIABLO (DIABLO HOMOLOG, MIT[…])
T19 construct: endogenous in cells; host or cells: HeLa cell extract
T19 sequence (Q9NR28 22-239): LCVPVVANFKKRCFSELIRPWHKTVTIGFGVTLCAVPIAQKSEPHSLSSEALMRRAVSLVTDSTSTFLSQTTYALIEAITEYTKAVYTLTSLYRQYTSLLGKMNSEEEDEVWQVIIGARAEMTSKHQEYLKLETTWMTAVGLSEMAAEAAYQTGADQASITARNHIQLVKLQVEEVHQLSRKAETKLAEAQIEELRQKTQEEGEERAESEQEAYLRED

[20] = molecular target: T20, HeLa cell extract proteins (Homo sapiens, UniProt Q9Y6D5); details: HeLa; protein ARFGEF2
T20 construct: endogenous in cells; host or cells: HeLa cell extract

T3 sequence (P07437 whole entry): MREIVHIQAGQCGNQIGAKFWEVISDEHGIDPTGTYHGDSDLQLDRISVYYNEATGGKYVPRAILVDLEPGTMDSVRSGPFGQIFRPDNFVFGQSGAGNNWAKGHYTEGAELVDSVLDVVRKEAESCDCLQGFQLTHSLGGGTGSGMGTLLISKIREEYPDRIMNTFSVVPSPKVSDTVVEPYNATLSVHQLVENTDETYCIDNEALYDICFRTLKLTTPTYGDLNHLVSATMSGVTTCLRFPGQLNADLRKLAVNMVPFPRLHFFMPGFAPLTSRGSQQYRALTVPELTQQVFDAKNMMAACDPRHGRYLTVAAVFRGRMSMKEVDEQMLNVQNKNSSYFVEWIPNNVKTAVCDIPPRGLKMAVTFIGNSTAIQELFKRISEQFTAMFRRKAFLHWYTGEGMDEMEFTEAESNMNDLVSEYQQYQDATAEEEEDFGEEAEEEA
T8 sequence (P38646 47-679): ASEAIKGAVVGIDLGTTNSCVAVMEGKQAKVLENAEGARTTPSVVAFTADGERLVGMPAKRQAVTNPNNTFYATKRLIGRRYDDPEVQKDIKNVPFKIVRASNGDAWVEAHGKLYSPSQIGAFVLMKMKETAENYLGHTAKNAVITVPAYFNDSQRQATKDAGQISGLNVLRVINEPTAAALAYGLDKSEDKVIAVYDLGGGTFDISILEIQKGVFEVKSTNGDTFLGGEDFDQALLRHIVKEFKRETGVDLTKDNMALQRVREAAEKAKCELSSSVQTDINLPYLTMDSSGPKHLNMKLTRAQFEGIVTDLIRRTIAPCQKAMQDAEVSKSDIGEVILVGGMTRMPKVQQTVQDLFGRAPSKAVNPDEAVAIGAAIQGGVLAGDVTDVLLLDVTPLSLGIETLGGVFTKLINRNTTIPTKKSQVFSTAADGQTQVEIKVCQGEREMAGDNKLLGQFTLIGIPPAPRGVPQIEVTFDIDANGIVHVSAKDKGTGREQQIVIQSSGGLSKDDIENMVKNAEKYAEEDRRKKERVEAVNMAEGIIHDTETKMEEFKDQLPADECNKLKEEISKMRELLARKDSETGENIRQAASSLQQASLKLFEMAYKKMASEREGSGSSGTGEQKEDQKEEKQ
T18 sequence (Q93074 whole entry): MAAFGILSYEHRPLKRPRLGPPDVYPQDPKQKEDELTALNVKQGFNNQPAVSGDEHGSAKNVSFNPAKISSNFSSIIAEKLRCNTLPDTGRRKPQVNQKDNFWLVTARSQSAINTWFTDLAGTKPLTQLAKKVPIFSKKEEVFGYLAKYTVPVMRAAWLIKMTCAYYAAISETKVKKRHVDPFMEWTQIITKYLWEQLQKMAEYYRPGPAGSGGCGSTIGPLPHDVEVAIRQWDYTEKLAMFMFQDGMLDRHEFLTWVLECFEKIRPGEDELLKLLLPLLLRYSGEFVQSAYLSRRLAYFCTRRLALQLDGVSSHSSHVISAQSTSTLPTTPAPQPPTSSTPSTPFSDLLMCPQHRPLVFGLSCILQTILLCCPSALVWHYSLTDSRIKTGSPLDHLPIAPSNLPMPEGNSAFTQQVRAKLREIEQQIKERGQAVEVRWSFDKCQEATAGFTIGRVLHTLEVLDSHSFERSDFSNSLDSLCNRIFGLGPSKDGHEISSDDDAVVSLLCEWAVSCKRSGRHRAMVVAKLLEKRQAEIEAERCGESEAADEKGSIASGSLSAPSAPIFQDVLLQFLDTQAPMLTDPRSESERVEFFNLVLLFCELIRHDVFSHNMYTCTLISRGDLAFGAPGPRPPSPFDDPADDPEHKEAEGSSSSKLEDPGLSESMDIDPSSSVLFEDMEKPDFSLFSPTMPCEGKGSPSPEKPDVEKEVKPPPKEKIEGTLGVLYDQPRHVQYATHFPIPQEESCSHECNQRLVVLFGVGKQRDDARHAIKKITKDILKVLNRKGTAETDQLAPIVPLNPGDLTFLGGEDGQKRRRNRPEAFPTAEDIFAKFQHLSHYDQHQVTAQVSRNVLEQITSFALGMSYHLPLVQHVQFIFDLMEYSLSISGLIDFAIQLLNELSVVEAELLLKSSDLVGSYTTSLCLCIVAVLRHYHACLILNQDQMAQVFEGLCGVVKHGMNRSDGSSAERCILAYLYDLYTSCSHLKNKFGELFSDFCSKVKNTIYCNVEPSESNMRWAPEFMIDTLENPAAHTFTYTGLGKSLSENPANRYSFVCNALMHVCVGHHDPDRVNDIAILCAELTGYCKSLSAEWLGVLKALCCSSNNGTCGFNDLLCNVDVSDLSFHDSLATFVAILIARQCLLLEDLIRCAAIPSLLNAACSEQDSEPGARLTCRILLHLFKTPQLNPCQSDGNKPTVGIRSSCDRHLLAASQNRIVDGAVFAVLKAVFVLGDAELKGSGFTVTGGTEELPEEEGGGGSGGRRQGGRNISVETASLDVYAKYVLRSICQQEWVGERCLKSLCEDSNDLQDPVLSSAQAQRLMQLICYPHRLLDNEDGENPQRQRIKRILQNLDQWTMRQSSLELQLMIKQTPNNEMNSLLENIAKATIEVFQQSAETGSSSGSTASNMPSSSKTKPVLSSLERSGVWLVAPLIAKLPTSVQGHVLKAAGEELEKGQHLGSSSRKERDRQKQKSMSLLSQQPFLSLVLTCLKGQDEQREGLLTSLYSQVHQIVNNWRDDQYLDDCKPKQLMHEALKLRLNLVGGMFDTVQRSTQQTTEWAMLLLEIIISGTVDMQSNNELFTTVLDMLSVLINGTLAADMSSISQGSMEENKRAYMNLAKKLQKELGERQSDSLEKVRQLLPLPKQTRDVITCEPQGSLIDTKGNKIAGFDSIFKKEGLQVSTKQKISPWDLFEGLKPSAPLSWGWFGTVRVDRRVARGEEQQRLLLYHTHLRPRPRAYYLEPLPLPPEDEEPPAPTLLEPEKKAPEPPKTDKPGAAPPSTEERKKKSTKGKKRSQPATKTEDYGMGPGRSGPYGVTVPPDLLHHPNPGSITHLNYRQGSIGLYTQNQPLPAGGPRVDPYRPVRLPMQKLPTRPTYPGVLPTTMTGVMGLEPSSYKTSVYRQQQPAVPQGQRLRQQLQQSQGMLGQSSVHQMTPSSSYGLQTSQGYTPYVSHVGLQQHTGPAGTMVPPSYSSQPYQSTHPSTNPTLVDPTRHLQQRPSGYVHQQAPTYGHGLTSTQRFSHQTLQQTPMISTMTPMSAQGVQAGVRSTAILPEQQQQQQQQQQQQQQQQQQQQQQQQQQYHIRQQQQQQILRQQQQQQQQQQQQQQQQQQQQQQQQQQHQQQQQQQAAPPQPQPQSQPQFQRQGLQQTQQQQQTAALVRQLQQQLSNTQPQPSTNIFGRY
T15 sequence (Q14203 whole entry): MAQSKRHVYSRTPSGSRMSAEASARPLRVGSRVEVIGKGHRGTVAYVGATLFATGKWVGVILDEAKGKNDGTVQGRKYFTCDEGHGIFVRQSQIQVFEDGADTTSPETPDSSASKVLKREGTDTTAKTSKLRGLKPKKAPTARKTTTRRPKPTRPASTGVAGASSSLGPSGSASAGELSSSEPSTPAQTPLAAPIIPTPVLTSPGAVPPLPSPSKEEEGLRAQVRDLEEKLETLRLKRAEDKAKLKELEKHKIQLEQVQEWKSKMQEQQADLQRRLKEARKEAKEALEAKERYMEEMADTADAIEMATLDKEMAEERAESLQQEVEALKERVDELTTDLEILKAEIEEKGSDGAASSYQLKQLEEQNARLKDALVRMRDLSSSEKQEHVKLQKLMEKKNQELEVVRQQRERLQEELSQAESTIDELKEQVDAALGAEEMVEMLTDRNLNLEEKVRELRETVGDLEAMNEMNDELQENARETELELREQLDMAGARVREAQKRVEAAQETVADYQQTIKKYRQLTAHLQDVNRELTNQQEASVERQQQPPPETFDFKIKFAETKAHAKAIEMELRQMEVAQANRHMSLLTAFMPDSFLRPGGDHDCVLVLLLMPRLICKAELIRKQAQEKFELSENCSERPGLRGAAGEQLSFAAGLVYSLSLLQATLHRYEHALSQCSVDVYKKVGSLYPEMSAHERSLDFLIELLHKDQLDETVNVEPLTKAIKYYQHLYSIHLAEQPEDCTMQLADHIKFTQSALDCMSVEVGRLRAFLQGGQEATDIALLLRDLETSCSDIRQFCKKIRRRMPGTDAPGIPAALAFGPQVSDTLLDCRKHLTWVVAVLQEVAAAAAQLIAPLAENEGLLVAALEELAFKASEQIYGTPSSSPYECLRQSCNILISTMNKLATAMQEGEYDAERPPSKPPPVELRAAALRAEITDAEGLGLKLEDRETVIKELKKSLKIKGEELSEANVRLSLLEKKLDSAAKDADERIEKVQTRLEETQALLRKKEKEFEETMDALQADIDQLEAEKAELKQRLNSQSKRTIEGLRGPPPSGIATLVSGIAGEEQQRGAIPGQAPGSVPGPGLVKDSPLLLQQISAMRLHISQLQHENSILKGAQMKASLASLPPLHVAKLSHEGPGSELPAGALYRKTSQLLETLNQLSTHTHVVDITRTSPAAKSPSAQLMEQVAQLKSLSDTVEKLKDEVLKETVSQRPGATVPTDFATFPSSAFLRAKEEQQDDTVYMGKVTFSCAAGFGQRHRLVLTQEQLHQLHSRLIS
T17 sequence (Q92734 whole entry): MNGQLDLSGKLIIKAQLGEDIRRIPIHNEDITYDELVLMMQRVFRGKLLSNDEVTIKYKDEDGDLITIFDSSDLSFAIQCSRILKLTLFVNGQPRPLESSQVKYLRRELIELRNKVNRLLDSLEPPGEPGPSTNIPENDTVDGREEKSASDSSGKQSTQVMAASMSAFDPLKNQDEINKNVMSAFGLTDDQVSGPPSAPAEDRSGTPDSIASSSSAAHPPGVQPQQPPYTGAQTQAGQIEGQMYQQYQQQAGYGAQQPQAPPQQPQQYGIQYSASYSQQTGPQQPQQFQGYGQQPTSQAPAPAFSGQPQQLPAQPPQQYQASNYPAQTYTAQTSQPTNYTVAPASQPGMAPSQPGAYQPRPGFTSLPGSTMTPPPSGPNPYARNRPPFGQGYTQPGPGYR

Nc1nc2c(c(=O)[nH]1)N(C=O)C(CNc1ccc(C(=O)N[C@@H](CCC(=O)O)C(=O)O)cc1)CN2 (some centres unmarked) [LEU, leucovorin]
fold changes relative to vehicle control [1]: 1.06 | fold changes relative to vehicle control [2]: 0.96 | fold changes relative to vehicle control [3]: 0.91 | fold changes relative to vehicle control [4]: 1.08 | fold changes relative to vehicle control [5]: 1.25 | fold changes relative to vehicle control [6]: 1.1 | fold changes relative to vehicle control [7]: 0.96 | fold changes relative to vehicle control [8]: 1.05 | fold changes relative to vehicle control [9]: 1.14 | fold changes relative to vehicle control [10]: 0.93 | fold changes relative to vehicle control [11]: 1.01 | fold changes relative to vehicle control [12]: 1.08 | fold changes relative to vehicle control [13]: 1.05 | fold changes relative to vehicle control [14]: 0.78 | fold changes relative to vehicle control [15]: 1.14 | fold changes relative to vehicle control [16]: 0.9 | fold changes relative to vehicle control [17]: 1.01 | fold changes relative to vehicle control [18]: 1.14 | fold changes relative to vehicle control [19]: 1.06 | fold changes relative to vehicle control [20]: 1.01
